# Laboratory results published in patent publication US11752141B2, “Pharmaceutical compositions and methods utilizing neostigmine and an NK-1 antagonist for treating myasthenia gravis” (priority 2017, dated 2023).
# Tested on: human subjects
# Assay: Phase I single-blind, placebo-controlled study of pyridostigmine bromide with or without aprepitant
# Format: in vivo
# Settings: single oral dose of aprepitant (up to 125 mg) co-administered with first intolerable dose (FID) of oral pyridostigmine bromide; healthy volunteers; follow-up up to 8 hours
# Description: The ability of the NK1-antagonists for preventing the adverse effects of pyridostigmine bromide in humans is tested.
# A Phase I study is conducted in human subjects receiving a single oral dose of pyridostigmine bromide with or without a single oral dose of aprepitant, as a representative NK1-antagonist. The study was a single center, single-blind, placebo-controlled study.
# To be enrolled in the study, participants are to meet the following inclusion/ex elusion criteria:
# • 1. Male or female volunteers between the ages of 18 and 60 years inclusive are required to be in good health, to refrain from consuming xanthine, quinine and caffeine containing beverages, and to refrain from prolonged intensive physical exercise during the study conduct. • 2. […] Subjects had to be in good health according to their medical history including personal and family psychiatric history, physical examination, ECG, vital signs, and laboratory tests. […] Subjects had to be able to swallow multiple pills simultaneously. Key Exclusion Criteria • 1. Any clinically relevant acute or chronic disease which could interfere with the subjects' safety during the trial, expose them to undue risk, or interfere with the study objectives. • 2. History or presence of gastrointestinal, hepatic, or renal disease or other condition known to interfere with the absorption, distribution, metabolism or excretion of drugs. • 3. […]
compound,measurement,value
"C[C@@H](O[C@H]1OCCN(Cc2nc(=O)[nH][nH]2)[C@H]1c1ccc(F)cc1)c1cc(C(F)(F)F)cc(C(F)(F)F)c1 [aprepitant, 5-[[(2R,3S)-2-[(1R)-1-[3,5-bis(trifluoromethyl)phenyl]ethoxy]-3-(4-fluorophenyl)-4-morpholinyl]methyl]-1,2-dihydro-3H-1,2,4-triazol-3-one]",occurrence of gastro-intestinal AEs with pyridostigmine,prevents or attenuates
